IC50 data for one compound are collected here from US20240425519A1, “NOVEL SPIROCYCLIC COMPOUNDS AS KLHDC2 LIGANDS” (University of Washington, priority 2021, published 2024).

The assay has as its target KLHDC2 (Homo sapiens (Human), UniProt Q9Y2U9). The assay can be described thus: AlphaScreen competition assay for ligand binding to KLHDC2 (GST-KLHDC2 vs biotinylated 12 aa SelK degron peptide). As to conditions: formula (II) compounds; 0.12 nM GST-KLHDC2, 1.7 nM biotinylated 12 aa SelK peptide; triplicate; read-out: KLHDC2 binding activities IC50. The text has this:
The following is a description of an assay for evaluating ligand binding to KLHDC2.
Amplified Luminescence Proximity Homogenous Assay (AlphaScreen) was used to monitor protein-protein interaction of two tagged components that are immobilized on beads. One component was GST-KLHDC2 (E3) and the other one was biotinylated-SelK peptide with a length of 12 amino acids (Substrate peptide). When the two components bind, they bring the Alpha beads in close proximity to each other that results in a luminescent signal.
AlphaScreen assays for determining and measuring protein-protein interactions were performed using EnSpire reader (PerkinElmer). GST-tagged KLHDC2 was attached to anti-GST AlphaScreen acceptor beads. Synthetic biotinylated 12 aa SelK degron peptide (Bio-Synthesis, Inc.) was immobilized to streptavidin-coated AlphaScreen donor beads. The donor and acceptor beads were brought into proximity by the interactions between the SelK peptide and KLHDC2. Excitation of the donor beads by a laser beam of 680 nm promotes the formation of singlet oxygen. When an acceptor bead is in close proximity, the singlet oxygen reacts with thioxene derivatives in the acceptor beads and causes the emission of 520-620 nm photons, which are detected as the binding signal. If the beads are not in close proximity to each other, the oxygen will return to its ground state and the acceptor beads will not emit light. Competition assays were performed in the presence of representative binding compounds, which were titrated at various concentrations.
The experiments were conducted with 0.12 nM of GST-KLHDC2 and 1.7 nM biotinylated 12 aa SelK peptide in the presence of 5 μg/ml donor and acceptor beads in a buffer of 25 mM HEPES, pH 7.5, 100 mM NaCl, 1 mM TCEP, 0.1% Tween-20, and 0.05 mg/ml Bovine Serum Albumin. The concentrations of the compounds used in competition assays ranged from 0.1 nM to 25 mM. The experiments were done in triplicate. IC50 values were determined using non-linear curve fitting of the dose response curves generated with Prism 4 (GraphPad).

KLHDC2, sequence (Q9Y2U9 whole entry): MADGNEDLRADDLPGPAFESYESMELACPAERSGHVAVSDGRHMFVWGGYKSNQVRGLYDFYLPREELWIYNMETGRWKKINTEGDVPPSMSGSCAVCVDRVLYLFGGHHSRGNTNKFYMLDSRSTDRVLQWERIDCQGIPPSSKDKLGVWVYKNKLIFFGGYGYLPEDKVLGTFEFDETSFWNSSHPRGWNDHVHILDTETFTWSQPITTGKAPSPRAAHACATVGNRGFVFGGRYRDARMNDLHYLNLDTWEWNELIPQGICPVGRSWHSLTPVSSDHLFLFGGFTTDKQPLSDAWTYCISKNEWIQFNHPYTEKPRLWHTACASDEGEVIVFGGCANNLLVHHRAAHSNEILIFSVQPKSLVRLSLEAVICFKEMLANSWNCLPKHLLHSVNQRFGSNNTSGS

`CN1CCN(C(=O)NC2CCC2)CC12CCC(=O)N(CC(=O)O)CC2` (stereo not shown) [AC1049, 2-(4-(cyclobutylcarbam-oyl)-1-methyl-10-oxo-1,4,9-triazaspiro[5.6]-dodecan-9-yl)acetic acid]: the IC50 turned out to be 91.7 µM.
